Test results reported in ChEMBL document CHEMBL1128761, “Benzothiazolylthio carbapenems: potent anti-MRSA agents” (Bioorg Med Chem Lett, 1995).

target: T1, Dipeptidase 1 (Sus scrofa) (UniProt P22412); assay: Susceptibility to DHP-I (swine kidney enzyme); type: tissue-based; settings: not given
T1 sequence (whole entry): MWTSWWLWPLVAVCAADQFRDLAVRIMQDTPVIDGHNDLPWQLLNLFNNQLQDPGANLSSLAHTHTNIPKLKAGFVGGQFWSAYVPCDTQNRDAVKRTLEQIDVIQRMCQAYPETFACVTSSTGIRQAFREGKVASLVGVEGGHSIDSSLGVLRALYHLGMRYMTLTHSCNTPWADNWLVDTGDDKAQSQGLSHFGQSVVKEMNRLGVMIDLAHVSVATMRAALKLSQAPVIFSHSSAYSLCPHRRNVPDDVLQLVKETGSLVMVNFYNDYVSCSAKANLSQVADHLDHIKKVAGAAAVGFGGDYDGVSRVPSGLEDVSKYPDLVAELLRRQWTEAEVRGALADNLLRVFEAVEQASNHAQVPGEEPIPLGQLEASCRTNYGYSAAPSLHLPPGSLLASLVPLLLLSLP

SMILES	Susceptibility
C[C@@H](O)[C@H]1C(=O)N2C(C(=O)[O-])=C(Sc3nc(-c4ccccc4)cs3)C[C@H]12.[Na+]	3.6
C[C@@H](O)[C@H]1C(=O)N2C(C(=O)[O-])=C(Sc3nc(-c4ccccc4)cs3)[C@H](C)[C@H]12.[Na+]	0.4
C[C@@H](O)[C@H]1C(=O)N2C(C(=O)[O-])=C(Sc3nc4ccc([N+](=O)[O-])cc4s3)[C@H](C)[C@H]12.[Na+]	0.2
C[C@@H](O)[C@H]1C(=O)N2C(C(=O)[O-])=C(Sc3nccs3)[C@H](C)[C@H]12.[Na+]	0.4
C[C@@H](O)[C@H]1C(=O)N2C(C(=O)[O-])=C(Sc3nc4cc(Cl)ccc4s3)C[C@H]12.[Na+]	1.2
C[C@@H](O)[C@H]1C(=O)N2C(C(=O)[O-])=C(Sc3nc4c(CO)csc4s3)[C@H](C)[C@H]12.[Na+]	0.5

tested on: Enterococcus; assay: Inhibitory activity against enterococcus evaluated by computational method; type: functional; settings: not given

SMILES	MIC [µg/mL]
C[C@@H](O)[C@H]1C(=O)N2C(C(=O)[O-])=C(Sc3nc(-c4ccccc4)cs3)C[C@H]12.[Na+]	2.1
C[C@@H](O)[C@H]1C(=O)N2C(C(=O)[O-])=C(Sc3nc(-c4ccccc4)cs3)[C@H](C)[C@H]12.[Na+]	2.6
C[C@@H](O)[C@H]1C(=O)N2C(C(=O)[O-])=C(Sc3nc4ccc([N+](=O)[O-])cc4s3)[C@H](C)[C@H]12.[Na+]	4.9
C[C@@H](O)[C@H]1C(=O)N2C(C(=O)[O-])=C(Sc3nccs3)[C@H](C)[C@H]12.[Na+]	7.1
C[C@@H](O)[C@H]1C(=O)N2C(C(=O)[O-])=C(Sc3nc4cc(Cl)ccc4s3)C[C@H]12.[Na+]	0.7
C[C@@H](O)[C@H]1C(=O)N2C(C(=O)[O-])=C(Sc3nc4c(CO)csc4s3)[C@H](C)[C@H]12.[Na+]	4

tested on: Bacteria; assay: The gram-negative activity is derived from eleven strains selected from seven enteric genera; type: functional; settings: Bacteria; read-out: MIC

SMILES	MIC [µg/mL]
C[C@@H](O)[C@H]1C(=O)N2C(C(=O)[O-])=C(Sc3nc(-c4ccccc4)cs3)C[C@H]12.[Na+]	14
C[C@@H](O)[C@H]1C(=O)N2C(C(=O)[O-])=C(Sc3nc(-c4ccccc4)cs3)[C@H](C)[C@H]12.[Na+]	6.6
C[C@@H](O)[C@H]1C(=O)N2C(C(=O)[O-])=C(Sc3nc4ccc([N+](=O)[O-])cc4s3)[C@H](C)[C@H]12.[Na+]	22.4
C[C@@H](O)[C@H]1C(=O)N2C(C(=O)[O-])=C(Sc3nccs3)[C@H](C)[C@H]12.[Na+]	2.5
C[C@@H](O)[C@H]1C(=O)N2C(C(=O)[O-])=C(Sc3nc4cc(Cl)ccc4s3)C[C@H]12.[Na+]	3.8
C[C@@H](O)[C@H]1C(=O)N2C(C(=O)[O-])=C(Sc3nc4c(CO)csc4s3)[C@H](C)[C@H]12.[Na+]	9.7

target: T2, MecA (Staphylococcus aureus, UniProt Q7DHH4); assay: Binding affinity towards Penicillin-binding protein 2a from homogeneous MRSA COL strain using [3H]-radioligand; settings: not given
T2 sequence (Q7DHH4 whole entry): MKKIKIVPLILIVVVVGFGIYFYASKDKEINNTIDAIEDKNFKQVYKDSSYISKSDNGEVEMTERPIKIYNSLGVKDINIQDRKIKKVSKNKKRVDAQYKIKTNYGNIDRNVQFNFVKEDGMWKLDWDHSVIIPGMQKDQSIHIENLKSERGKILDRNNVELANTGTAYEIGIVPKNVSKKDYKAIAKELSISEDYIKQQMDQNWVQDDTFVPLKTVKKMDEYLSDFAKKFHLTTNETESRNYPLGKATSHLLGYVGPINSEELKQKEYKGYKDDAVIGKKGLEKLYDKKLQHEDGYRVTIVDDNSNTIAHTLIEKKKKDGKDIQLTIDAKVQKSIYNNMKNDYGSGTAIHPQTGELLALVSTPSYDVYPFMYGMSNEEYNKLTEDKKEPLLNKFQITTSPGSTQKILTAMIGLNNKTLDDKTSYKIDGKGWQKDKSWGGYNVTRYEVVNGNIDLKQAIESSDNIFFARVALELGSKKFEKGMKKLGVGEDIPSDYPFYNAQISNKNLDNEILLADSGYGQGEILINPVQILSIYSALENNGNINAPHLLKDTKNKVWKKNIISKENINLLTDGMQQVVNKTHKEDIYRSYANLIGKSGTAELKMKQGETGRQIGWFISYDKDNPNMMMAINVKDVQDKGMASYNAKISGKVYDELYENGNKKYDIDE

SMILES	IC50 [µM]
C[C@@H](O)[C@H]1C(=O)N2C(C(=O)[O-])=C(Sc3nc(-c4ccccc4)cs3)[C@H](C)[C@H]12.[Na+]	23.8
C[C@@H](O)[C@H]1C(=O)N2C(C(=O)[O-])=C(Sc3nc4ccc([N+](=O)[O-])cc4s3)[C@H](C)[C@H]12.[Na+]	1.35
C[C@@H](O)[C@H]1C(=O)N2C(C(=O)[O-])=C(Sc3nccs3)[C@H](C)[C@H]12.[Na+]	33.6
C[C@@H](O)[C@H]1C(=O)N2C(C(=O)[O-])=C(Sc3nc4cc(Cl)ccc4s3)C[C@H]12.[Na+]	3.82
C[C@@H](O)[C@H]1C(=O)N2C(C(=O)[O-])=C(Sc3nc4c(CO)csc4s3)[C@H](C)[C@H]12.[Na+]	2.76

tested on: Staphylococcus aureus; assay: Inhibitory activity against methicillin-sensitive staphylococcus aureus(MSSA); type: functional; settings: not given

SMILES	MIC [µg/mL]
C[C@@H](O)[C@H]1C(=O)N2C(C(=O)[O-])=C(Sc3nc(-c4ccccc4)cs3)C[C@H]12.[Na+]	0.03
C[C@@H](O)[C@H]1C(=O)N2C(C(=O)[O-])=C(Sc3nc(-c4ccccc4)cs3)[C@H](C)[C@H]12.[Na+]	0.05
C[C@@H](O)[C@H]1C(=O)N2C(C(=O)[O-])=C(Sc3nc4ccc([N+](=O)[O-])cc4s3)[C@H](C)[C@H]12.[Na+]	0.05
C[C@@H](O)[C@H]1C(=O)N2C(C(=O)[O-])=C(Sc3nccs3)[C@H](C)[C@H]12.[Na+]	0.17
C[C@@H](O)[C@H]1C(=O)N2C(C(=O)[O-])=C(Sc3nc4cc(Cl)ccc4s3)C[C@H]12.[Na+]	0.02
C[C@@H](O)[C@H]1C(=O)N2C(C(=O)[O-])=C(Sc3nc4c(CO)csc4s3)[C@H](C)[C@H]12.[Na+]	0.02

tested on: Staphylococcus aureus; assay: Inhibitory activity against methicillin-resistant staphylococcus aureus(MRSA); type: functional; settings: not given

SMILES	MIC [µg/mL]
C[C@@H](O)[C@H]1C(=O)N2C(C(=O)[O-])=C(Sc3nc(-c4ccccc4)cs3)C[C@H]12.[Na+]	11.3
C[C@@H](O)[C@H]1C(=O)N2C(C(=O)[O-])=C(Sc3nc(-c4ccccc4)cs3)[C@H](C)[C@H]12.[Na+]	1.9
C[C@@H](O)[C@H]1C(=O)N2C(C(=O)[O-])=C(Sc3nc4ccc([N+](=O)[O-])cc4s3)[C@H](C)[C@H]12.[Na+]	1.1
C[C@@H](O)[C@H]1C(=O)N2C(C(=O)[O-])=C(Sc3nccs3)[C@H](C)[C@H]12.[Na+]	18.2
C[C@@H](O)[C@H]1C(=O)N2C(C(=O)[O-])=C(Sc3nc4cc(Cl)ccc4s3)C[C@H]12.[Na+]	1.8
C[C@@H](O)[C@H]1C(=O)N2C(C(=O)[O-])=C(Sc3nc4c(CO)csc4s3)[C@H](C)[C@H]12.[Na+]	2
